Where a name gives a salt, the structure may show the parent alone. Read-outs that look alike come from different tables or passages of the source.

A word on the IC50: it is the concentration needed to halve the response being measured.

Experiment [1] concerns IL-4 stimulated expression of CD23 in human Ramos B cells (JAK-1 and JAK-3). In words: Assay for Ramos B-Cell Line Stimulated with IL-4 (CD23 upregulation, FACS). Type of experiment: cell-based. To be noted: read-out: IC50, Example 41. The essentials: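 Read-out is surface CD23 by FACS after anti-CD23-PE staining, giving IC50. Before this, cells were stimulated 20-24 h with 50 units/mL (final) human IL-4, following 1 h compound or vehicle pre-treatment at 37 °C; log-phase Ramos B cells, 5×10^4 per well in 5% serum RPMI.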

Another experiment deals with Primary human T-cells. In words: Primary Human T-Cell Proliferation Assay Stimulated with IL-2 (CellTiter-Glo). It is filed as cell-based. Conditions: read-out: IC50, Example 42. An excerpt:
The activity of the active compounds of the invention may further be characterized by assaying the effect of the 2,4-substituted pyrimidinediamine compounds described herein on the proliferative response of primary human T-cells. In this assay, primary human T-cells derived from peripheral blood and pre-activated through stimulation of the T-cell receptor and CD28, proliferate in culture in response to the cytokine Interleukin-2 (IL-2). This proliferative response is dependent on the activation of JAK1 and JAK3 tyrosine kinases, which phosphorylate and activate the transcription factor Stat-5. The primary human T-cells are incubated with the 2,4-substituted pyrimidinediamine compounds in the presence of IL-2 for 72 hours and at the assay endpoint intracellular ATP concentrations are measured to assess cell viability. A reduction in cell proliferation compared to control conditions is indicative of inhibition of the JAK kinase pathway. An exemplary assay of this type is described in greater detail in Example 42
Primary human T-cells derived from peripheral blood and pre-activated through stimulation of the T-cell receptor and CD28, proliferate in vitro in response to the cytokine Interleukin-2 (IL-2). This proliferative response is dependent on the activation of JAK-1 and JAK-3 tyrosine kinases, which phosphorylate and activate the transcription factor Stat-5.
Human primary T cells were prepared as follows. Whole blood was obtained from a healthy volunteer, mixed 1:1 with PBS, layered on to Ficoll Hypaque (Amersham Pharmacia Biotech, Piscataway, NJ, Catalog #17-1440-03) in 2:1 blood/PBS:ficoll ratio and centrifuged for 30 min at 4° C. at 1750 rpm. The lymphocytes at the serum: ficoll interface were recovered and washed twice with 5 volumes of PBS. The cells were resuspended in Yssel's medium (Gemini Bio-products, Woodland, CA, Catalog #400-103) containing 40 U/mL recombinant IL2 (R and D Systems, Minneapolis, MN, Catalog #202-IL (20 rig)) and seeded into a flask pre-coated with 1 μg/mL anti-CD3 (BD Pharmingen, San Diego, CA, Catalog #555336) and 5 μg/mL anti-CD28 (Immunotech, Beckman Coulter of Brea CA, Catalog #IM1376). The primary T-cells were stimulated for 3-4 days, then transferred to a fresh flask and maintained in RPMI with 10% FBS and 40 U/mL IL-2.
Primary T-cells were washed twice with PBS to remove the IL-2 and resuspended in Yssel's medium at 2×10^6 cells/mL. 50 μL of cell suspension containing 80 U/mL IL-2 was added to each well of a flat bottom 96 well black plate. For the unstimulated control, IL-2 was omitted from the last column on the plate. Compounds were serially diluted in dimethyl sulfoxide (DMSO, 99.7% pure, cell culture tested, Sigma-Aldrich, St. Louis, MO, Catalog No. D2650) from 5 mM in 3-fold dilutions, and then diluted 1:250 in Yssel's medium. 50 μL of 2× compound was added per well in duplicate and the cells were allowed to proliferate for 72 hours at 37° C.
Proliferation was measured using CellTiter-Glo® Luminescent Cell Viability Assay (Promega), which determines the number of viable cells in culture based on quantitation of the ATP present, as an indicator of metabolically active cells. The substrate was thawed and allowed to come to room temperature. After mixing the Cell Titer-Glo reagent and diluent together, 100 μL was added to each well. The plates were mixed on an orbital shaker for two minutes to induce lysis and incubated at room temperature for an additional ten minutes to allow the signal to equilibrate. Detection was performed using a Wallac Victor2 1420 multilabel counter purchased from Perkin Elmer, Shelton, CT The IC50 calculated based on the results of this assay are provided in TABLE XII.

Setting [2] is: Ramos B-cell line stimulated with IL-4, CD23 expression by FACS.
[3] abbreviates: primary human T-cell proliferation stimulated with IL-2.
Setting [4] is: Homo sapiens, T-cell, primary human T-cell proliferation stimulated with IL-2.
Where [5] appears, read: Homo sapiens, Ramos, Ramos B-cell line stimulated with IL-4, CD23 expression by FACS.

On to `CC(Oc1ccc(Nc2nc(Nc3ccc(S(N)(=O)=O)cc3)ncc2F)cc1)C(N)=O` (racemic) [Compound I-116, Racemic N4-[4-(1-Aminocarbonyl)ethoxy]phenyl-N2-(4-aminosulfonyl)phenyl-5-fluoro-2,4-pyrimidinediamine], for which the results for the IC50 (in experiment [1] (setting [2]); in the experiment on Primary human T-cells (setting [3])) were 274 nM and 972 nM, respectively.
As to `Cc1ccc(Nc2ncc(F)c(NC3CN(Cc4ccccc4)CCC3C)n2)cc1S(N)(=O)=O` (racemic) [VII-3, Racemic N2-(3-aminosulfonyl-4-methylphenyl)-N4-(1-benzyl-4-methylpiperidin-3-yl)-5-fluoro-2,4-pyrimidinediamine], the half-maximal inhibitory concentration (IC50) in experiment [1] (Ramos B cells stimulated with IL-4, CD23 expression by FACS) amounted to 14100 nM; in the experiment on Primary human T-cells (primary human T-cells stimulated with IL-2, proliferation), 16500 nM.
Regarding `N#CCOc1cccc(Nc2nc(Nc3ccc(S(N)(=O)=O)cc3)ncc2F)c1` [Compound I-3, N2-(4-Aminosulfonyl)phenyl-N4-(3-cyanomethoxy)phenyl-5-fluoro-2,4-pyrimidinediamine], the concentration for half-maximal inhibition (IC50) in experiment [1] (setting [2]) was determined as 107 nM; in the experiment with Primary human T-cells (setting [3]), 987 nM.
For `COc1cc(Nc2ncc(F)c(Nc3cccc(OCC#N)c3)n2)ccc1S(N)(=O)=O` [Compound I-7, N2-(4-Aminosulfonyl-3-methoxy)phenyl-N4-(3-cyanomethoxy)phenyl-5-fluoro-2,4-pyrimidinediamine], in that order: 120 nM and 502 nM.
On to `N#CCOc1ccc(Nc2nc(Nc3ccc(S(N)(=O)=O)cc3)ncc2F)cc1` [Compound I-16, N2-(4-Aminosulfonyl)phenyl-N4-(4-cyanomethoxy)phenyl-5-fluoro-2,4-pyrimidinediamine], for which the values for the half-inhibitory concentration (IC50) (in experiment [1] (setting [2]); in the experiment on Primary human T-cells (setting [3])) were 124 nM and 436 nM, respectively.
The like results for `CN1CCN(S(=O)(=O)c2ccc(Nc3ncc(F)c(Nc4ccc(OCC#N)cc4)n3)cc2)CC1` [Compound I-18, N4-(4-Cyanomethoxy)phenyl-5-fluoro-N2-[4-(4-methylpiperazin-1-yl)sulfonyl]phenyl-2,4-pyrimidinediamine] were, in that order, 283 nM and 1490 nM.
For `COc1cc(Nc2ncc(F)c(Nc3ccc(OCC#N)c(C)c3)n2)ccc1S(N)(=O)=O` [Compound I-29, N2-(4-Aminosulfonyl-3-methoxy)phenyl-N4-(4-cyanomethoxy-3-methyl)phenyl-5-fluoro-2,4-pyrimidinediamine], in that order: 120 nM and 502 nM.
For `CCC(=O)NS(=O)(=O)c1cc(Nc2ncc(F)c(Nc3ccc(OCC#N)cc3)n2)ccc1C` [Compound I-30, N4-(4-Cyanomethyleneoxy)phenyl-5-fluoro-N2-(4-methyl-3-propionylaminosulfonyl)phenyl-2,4-pyrimidinediamine], in that order: 5430 nM and 3570 nM.
Take `CCC(=O)NS(=O)(=O)c1cc(Nc2ncc(F)c(Nc3ccc(OCC#N)c(F)c3)n2)ccc1C` [Compound I-49, N4-(4-Cyanomethoxy-3-fluorophenyl)-5-fluoro-N2-(4-methyl-3-propionylaminosulfonylphenyl)-2,4-pyrimidinediamine Sodium Salt]: the IC50 in experiment [1] (Ramos B-cell line stimulated with IL-4, CD23 expression by FACS, sodium salt) turned out to be 2320 nM; in the experiment on Primary human T-cells (setting [4]), 5560 nM.
Regarding `COc1cc(Nc2ncc(F)c(Nc3ccc(OC(C)(C)C#N)cc3)n2)ccc1S(N)(=O)=O` [Compound I-77, N2-(4-Aminosulfonyl-3-methoxy)phenyl-N4-[4-(1-cyano-1-methyl)ethoxy]phenyl-5-fluoro-2,4-pyrimidinediamine], the half-maximal inhibitory concentration (IC50) was determined as 147 nM in experiment [1] (setting [2]) and 1620 nM in the experiment with Primary human T-cells (setting [3]).
For `N#CCC(=O)Nc1ccc(Nc2nc(Nc3cccc(S(N)(=O)=O)c3)ncc2F)cc1` [Compound I-78, N2-(3-Aminosulfonylphenyl)-N4-[4-(N-cyanoacetyl)aminophneyl]-5-fluoro-2,4-pyrimidinediamine], in that order: 635 nM and 1210 nM.
The like results for `Cc1ccc(Nc2ncc(F)c(Nc3ccc(NC(=O)CC#N)cc3)n2)cc1S(N)(=O)=O` [Compound I-79, N2-(3-Aminosulfonyl-4-methylphenyl)-N4-[4-(N-cyanoacetyl)aminophneyl]-5-fluoro-2,4-pyrimidinediamine] were, in that order, 461 nM and 1060 nM.
Take `Cc1cc(Nc2nc(Nc3cccc(S(N)(=O)=O)c3)ncc2F)ccc1NC(=O)CC#N` [Compound I-80, N2-(3-Aminosulfonylphenyl)-5-fluoroN4-[3-methyl-4-(N-cyanoacetyl)aminophneyl]-2,4-pyrimidinediamine]: the IC50 in experiment [1] (setting [2]) stood at 365 nM; with Primary human T-cells (setting [3]) it was 470 nM.
In the case of `Cc1cc(Nc2nc(Nc3ccc(C)c(S(N)(=O)=O)c3)ncc2F)ccc1NC(=O)CC#N` [Compound I-81, N2-(3-Aminosulfonyl-4-methylphenyl)-5-fluoroN4-[3-methyl4-(N-cyanoacetyl)aminophneyl]-2,4-pyrimidinediamine], the 50% inhibitory concentration (IC50) in experiment [1] (setting [2]) came to 360 nM; with Primary human T-cells (setting [3]), 957 nM.
The like results for `N#CCC(=O)Nc1ccc(Nc2nc(Nc3cccc(S(N)(=O)=O)c3)ncc2F)cc1Cl` [Compound I-82, N2-(3-Aminosulfonylphenyl)-N4-[3-chloro-4-(N-cyanoacetyl)aminophneyl]-5-fluoro-2,4-pyrimidinediamine] were, in that order, 244 nM and 1380 nM.
For `Cc1cc(Nc2nc(Nc3ccc(S(N)(=O)=O)cc3)ncc2F)cc(C)c1OCC(N)=O` [Compound I-114, N4-(4-Aminocarbonylmethoxy-3,5-dimethyl)phenyl-N2-(4-aminosulfonyl)phenyl-5-fluoro-2,4-pyrimidinediamine], the figures for the half-maximal inhibitory concentration (IC50) (in experiment [1] (setting [2]); in the experiment with Primary human T-cells (setting [3])) were 448 nM and 6710 nM, respectively.
For `Cc1ccc(Nc2ncc(F)c(Nc3ccc(OCC(=O)N(C)C)cc3)n2)cc1S(N)(=O)=O` [Compound I-130, N2-(3-Aminosulfonyl-4-methylphenyl)-N4-(4-dimethylaminocarbonylmethoxyphenyl)-5-fluoro-2,4-pyrimidinediamine], the results for the IC50 (in experiment [1] (setting [5]); with Primary human T-cells (setting [4])) were 601 nM and 1730 nM, respectively.
The like results for `Cc1ccc(Nc2ncc(F)c(Nc3ccc(OCC(=O)N(C)C)c(Cl)c3)n2)cc1S(N)(=O)=O` [Compound I-133, N2-(3-Aminosulfonyl-4-methylphenyl)-N4-(3-chloro-4-dimethylaminocarbonylmethoxyphenyl)-5-fluoro-2,4-pyrimidinediamine] were, in that order, 237 nM and 1350 nM.
Turning to `NS(=O)(=O)c1ccc(Nc2ncc(F)c(Nc3ccc(-c4ccccn4)c(OCF)c3)n2)cc1` [Compound I-177, N2-(4-Aminosulfonylphenyl)-5-fluoro-N4-[4-(2-pyridinyl)-3-fluoromethyleneoxyphenyl]-2,4-pyrimidinediamine], the IC50 with Primary human T-cells (setting [3]) was 500 nM.
With `C#CCNS(=O)(=O)c1ccc(Nc2nc(Nc3ccc(S(N)(=O)=O)cc3)ncc2F)cc1` [VI-77, N2-(4-Aminosulfonylphenyl)-5-fluoro-N4-[4-(prop-2-ynylaminosulfonyl)phenyl]-2,4-pyrimidinediamine], the IC50 in the experiment with Primary human T-cells (Homo sapiens, T-cell, primary human T-cells stimulated with IL-2, proliferation) came out at 43300 nM.

The values are drawn from patent US11827628B2, “Compositions and methods for inhibition of the JAK pathway” (Rigel Pharmaceuticals, Inc., priority 2005, dated 2023).
